Assay results from patent publication US20220127568A1, “COMPOSITIONS AND METHODS FOR GENERATING HAIR CELLS BY INHIBITING EPIGENETIC TARGETS” (Frequency Therapeutics, Inc., priority 2019, published 2022).
pIC50: −log10 of the molar value.

Tests used:
[1] = system: KDM1; conditions: Table 9, first KDM data cell; read-out: Select KDM1; cited from earlier work
[2] = system: KDM5; conditions: Table 9; read-out: Select KDM5; cited from earlier work
[3] = system: KDM7; conditions: Table 9; read-out: Select KDM7; cited from earlier work
[4] = system: Lgr5 GFP+ cochlear progenitor cells; assay: Lgr5+ Assay (Stem Cell Proliferation Assay); assay type: cell-based
[5] = molecular target: GSK-3 alpha (Homo sapiens, UniProt P49840); conditions: Table 2; cited from earlier work
[6] = molecular target: T1, KDM1b (Homo sapiens, UniProt Q8NB78); conditions: Table 1; read-out: Select KDM1b; cited from earlier work
T1 sequence (Q8NB78 1-822): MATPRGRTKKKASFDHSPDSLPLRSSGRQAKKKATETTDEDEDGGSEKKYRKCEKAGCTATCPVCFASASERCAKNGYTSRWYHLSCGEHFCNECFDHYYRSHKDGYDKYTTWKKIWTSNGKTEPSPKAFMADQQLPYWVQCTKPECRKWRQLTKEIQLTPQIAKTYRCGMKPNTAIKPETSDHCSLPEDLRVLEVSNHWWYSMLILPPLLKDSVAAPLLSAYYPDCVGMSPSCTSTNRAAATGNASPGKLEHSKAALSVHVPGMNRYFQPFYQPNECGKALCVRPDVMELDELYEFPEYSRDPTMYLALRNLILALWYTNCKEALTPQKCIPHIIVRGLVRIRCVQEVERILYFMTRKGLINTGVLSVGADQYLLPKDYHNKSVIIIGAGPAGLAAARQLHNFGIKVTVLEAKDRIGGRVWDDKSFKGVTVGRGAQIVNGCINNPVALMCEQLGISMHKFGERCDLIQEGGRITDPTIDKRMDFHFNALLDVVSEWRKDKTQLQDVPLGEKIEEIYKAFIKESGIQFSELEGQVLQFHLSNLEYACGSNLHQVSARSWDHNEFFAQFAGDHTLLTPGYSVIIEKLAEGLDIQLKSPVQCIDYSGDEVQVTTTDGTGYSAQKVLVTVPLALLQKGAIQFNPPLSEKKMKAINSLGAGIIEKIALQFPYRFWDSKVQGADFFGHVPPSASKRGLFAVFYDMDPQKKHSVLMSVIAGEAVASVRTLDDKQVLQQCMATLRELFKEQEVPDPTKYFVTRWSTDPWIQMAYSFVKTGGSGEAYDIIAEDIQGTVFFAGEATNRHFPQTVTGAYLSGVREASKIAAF

[7] = molecular target: LSD1 (Homo sapiens, UniProt O60341); conditions: literature cell potency, LSD1 inhibitors; cited from earlier work
[8] = cited from earlier work
[9] = system: Lgr5+ cochlear progenitor cells; assay: Quantification of Lgr5+ cochlear progenitor cell proliferation, expansion and enrichment (3D Matrigel culture, Celigo imaging, GFP(+) cell area); assay type: cell-based, mouse
[10] = molecular target: DOT1L (Homo sapiens, UniProt Q8TEK3); conditions: literature cell potency, DOT1L inhibitors; cited from earlier work
Sequence of DOT1L (Q8TEK3 whole entry, species assumed): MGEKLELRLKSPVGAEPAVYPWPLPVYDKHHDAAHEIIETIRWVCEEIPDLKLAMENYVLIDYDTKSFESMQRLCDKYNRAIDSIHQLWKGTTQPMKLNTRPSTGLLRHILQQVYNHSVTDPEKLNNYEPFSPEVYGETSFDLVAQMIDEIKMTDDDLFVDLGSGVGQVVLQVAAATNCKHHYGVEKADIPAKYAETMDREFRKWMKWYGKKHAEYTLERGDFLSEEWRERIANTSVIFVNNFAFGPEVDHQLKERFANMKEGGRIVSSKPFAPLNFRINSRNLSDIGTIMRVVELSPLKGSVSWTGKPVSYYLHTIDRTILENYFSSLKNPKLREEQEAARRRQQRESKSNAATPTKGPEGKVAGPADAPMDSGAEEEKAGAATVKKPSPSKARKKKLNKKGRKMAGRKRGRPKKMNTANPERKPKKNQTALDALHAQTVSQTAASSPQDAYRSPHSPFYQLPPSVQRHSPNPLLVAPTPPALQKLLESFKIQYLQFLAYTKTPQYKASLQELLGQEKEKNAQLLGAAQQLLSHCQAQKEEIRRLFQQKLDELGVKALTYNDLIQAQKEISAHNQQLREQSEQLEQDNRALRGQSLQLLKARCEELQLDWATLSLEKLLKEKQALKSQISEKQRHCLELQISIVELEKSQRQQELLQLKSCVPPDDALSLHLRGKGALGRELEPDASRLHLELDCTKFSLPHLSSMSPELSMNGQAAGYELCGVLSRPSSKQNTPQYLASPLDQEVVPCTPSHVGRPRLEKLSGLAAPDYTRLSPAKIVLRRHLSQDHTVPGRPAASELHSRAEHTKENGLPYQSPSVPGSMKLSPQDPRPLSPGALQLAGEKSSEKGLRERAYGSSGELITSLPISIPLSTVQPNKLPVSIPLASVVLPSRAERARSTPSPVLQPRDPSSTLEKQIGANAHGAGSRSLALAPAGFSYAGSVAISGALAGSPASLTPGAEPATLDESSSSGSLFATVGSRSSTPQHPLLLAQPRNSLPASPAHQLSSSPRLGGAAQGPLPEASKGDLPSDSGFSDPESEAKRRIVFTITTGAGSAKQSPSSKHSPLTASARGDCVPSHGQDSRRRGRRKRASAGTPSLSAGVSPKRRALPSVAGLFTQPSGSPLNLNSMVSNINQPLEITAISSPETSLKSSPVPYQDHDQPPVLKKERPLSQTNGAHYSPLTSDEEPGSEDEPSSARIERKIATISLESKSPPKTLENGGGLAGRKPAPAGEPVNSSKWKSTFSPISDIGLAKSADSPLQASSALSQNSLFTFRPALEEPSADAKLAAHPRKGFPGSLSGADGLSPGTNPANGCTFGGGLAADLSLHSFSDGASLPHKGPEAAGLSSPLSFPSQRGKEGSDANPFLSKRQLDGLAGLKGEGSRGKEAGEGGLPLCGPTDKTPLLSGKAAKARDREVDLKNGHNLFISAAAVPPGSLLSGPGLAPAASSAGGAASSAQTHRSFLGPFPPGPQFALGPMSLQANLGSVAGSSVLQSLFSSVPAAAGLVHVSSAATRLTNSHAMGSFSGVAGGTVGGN

Sequence of GSK-3 alpha (P49840 whole entry): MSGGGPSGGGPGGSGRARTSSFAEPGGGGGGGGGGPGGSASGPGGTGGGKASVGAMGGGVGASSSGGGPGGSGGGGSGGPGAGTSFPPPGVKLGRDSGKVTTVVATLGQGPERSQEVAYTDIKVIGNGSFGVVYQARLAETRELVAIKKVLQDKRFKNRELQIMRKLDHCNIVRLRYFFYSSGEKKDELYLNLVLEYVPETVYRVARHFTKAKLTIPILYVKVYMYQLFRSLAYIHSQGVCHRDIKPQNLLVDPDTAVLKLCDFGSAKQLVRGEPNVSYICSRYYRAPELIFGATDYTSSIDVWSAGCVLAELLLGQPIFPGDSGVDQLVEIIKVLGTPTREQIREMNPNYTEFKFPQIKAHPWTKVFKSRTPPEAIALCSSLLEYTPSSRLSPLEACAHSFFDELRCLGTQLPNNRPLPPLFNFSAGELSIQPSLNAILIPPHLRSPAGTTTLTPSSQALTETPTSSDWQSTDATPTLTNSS

CN1CCN(C(=O)CN[C@@H]2C[C@H]2c2ccc(OCc3ccccc3)cc2)CC1 [Compound 1]
pIC50 [1]: 6.66
pIC50 [2]: 6.72
pIC50 [3]: 6.66

Cc1ccc(C(=O)Nc2c[nH]nc2C(=O)NCCCOC(C)C)cn1 [GSK XX1I]
Lgr5+ Assay ([4]; Wnt agonists (GSK3 inhibitors), active concentration range): 0.2 to 1 µM
pIC50 [5]: 8.64

N[C@H]1CC[C@H](N[C@@H]2C[C@H]2c2ccccc2)CC1 [ORY-1001]
pIC50 [6]: < 4.00
Literat. Cell [7]: 0.5 to 3 nM
Lgr5 GFP(+) cell area ([4]; FIG. 6A: 0-30 μM ORY-1001 alone in EFI vs EFI-C, EFI-CV): does not proliferate
Lgr5 GFP(+) cell area percentage ([4]; FIG. 6B: 0-30 μM ORY-1001 alone in EFI vs EFI-C, EFI-CV): does not enrich
Lgr5 GFP(+) cell area ([4]; FIG. 7A: 41 nM ORY-1001 + 4 uM CHIR99021 + 1 mM VPA in EFI vs CHIR+VPA): further enhances Lgr5 GFP+ progenitor cell proliferation
enrichment of Lgr5 GFP+ cells (y-axis: Lgr5 GFP(+) cell area) ([4]; FIG. 7B: 41 nM ORY-1001 + 4 uM CHIR99021 + 1 mM VPA in EFI vs CHIR+VPA): further enhances enrichment
Human Plasma Conc. ([8]; human plasma, LSD1 inhibitors): 1 to 100 nM
Lgr5+ progenitor cell proliferation and enrichment ([9]; inhibitor 41 nM with CHIR99021 (4 μM) and VPA (1 mM)): enhanced Lgr5+ progenitor cell proliferation and enrichment
proliferation or enrichment of cochlear progenitor cells ([9]; inhibitor alone): does not promote the proliferation or enrichment

CC(C)N(C[C@H]1O[C@@H](n2cnc3c(N)ncnc32)[C@H](O)[C@@H]1O)[C@H]1C[C@@H](CCc2nc3cc(C(C)(C)C)ccc3[nH]2)C1 [pinometostat]
Lit Cell [10]: 2.7 nM
Human In Vivo Conc ([8]; DOT1L inhibitors): (1-10 uM) μM
Human In Vivo Conc: Total plasma Css ([8]; total plasma Css): 0.8 to 1.6 µg/mL
Human In Vivo Conc: Total plasma Css (molar, in brackets) ([8]; total plasma Css): (1.42-2.94 uM)
